The text below walks through data of patent US9297798B2, “Therapeutic approach for polyglutamine degeneration” (The Chinese University of Hong Kong, priority 2013, dated 2016).

The subject of test [1] is DsRedCAG100 RNA toxicity. Nature of the test: Pseudopupil assay in DsRedCAG100 Drosophila fed with peptide. In kind it is in vivo. To be noted: larvae fed with synthetic peptide at 100 μM until adulthood. How it is done:
FIG. 3. Illustrates an in vivo reduction in expanded CAG-RNA toxicity by feeding Drosophila fly lines that overexpress DsRedCAG100 RNA with synthetic Nucleolin P3 peptide. DsRedCAG0 (A-C) and DsRedCAG100 (D-F) F1 larvae were fed with 100 μM of NCL P3 peptide until adulthood. Representative images of rhabdomeres (light-sensing organelles in eyes) taken from 1 day-old adult flies are shown. The average number of rhabdomeres per ommatidium (single eye unit of the adult flies) is shown at the bottom left hand corner of each image, and “+/−” represents s.e.m. from 3 independent sets of experiments. “NCL P3WT” represents wildtype NCL P3 peptide while “NCL P3MTc” represents mutant c NCL P3 peptide.
DsRedCAG RNA was expressed in Drosophila fly eyes. DsRedCAG0 (FIGS. 3A-C) and DsRedCAG100 (FIGS. 3D-F) using a pseudopupil assay (Chan W M, et al. 2011). F1 larvae were fed with 100 μM of NCL P3 peptides until adulthood. The overexpression caused the integrity of the internal eye structure to deteriorate, as indicated by the reduced number of rhabdomeres which are subcellular organelles responsible for phototransduction (FIG. 3D). DsRedCAG100 larvae were fed with synthetic P3MTc (FIG. 3E) or P3 (FIG. 3F) peptide at 100 μM.

Test [2] has as its system GRP78/BiP expression in MJDCAG78-expressing HEK293 cells. Nature of the test: Real-time PCR of GRP78/BiP in MJDCAG78-expressing HEK293 cells. In kind it is cell-based. Conditions: MJDCAG78-expressing HEK293 cells (FIG. 5D). From the text: (§1) FIG. 5. Depicts the distinct stress responses induced by toxic expanded CAG-RNA and polyQ protein which can be differentiated by pre-rRNA and GRP78/BiP gene expression respectively in transgenic Drosophila and mammalian cell models. […] “dpe” denotes days post eclosion. The CAG repeat sequence of the DsRedCAG constructs is located in the 3′ UTR, thus expanded CAG RNA is produced but not expanded polyglutamine protein. Only RNA toxicity is observed in the DsRedCAG model. […] The MJDCAG constructs express both expanded CAG RNA and polyglutamine protein. […] The MJDCAA/G construct only generates polyQ protein toxicity because the continuity of the expanded CAG sequence is disrupted which disrupts RNA toxicity. (D) Real-time PCR analysis of the effects of RNA and protein toxicity peptidylic inhibitors on pre-45s rRNA and GRP78/BiP expression in an MJD disease cell model. HEK293 cells expressing a polynucleotide encoding MJDCAG78 reduced pre-45s rRNA transcription and induced GRP78/BiP expression. […] Cells expressing a polynucleotide encoding MJDCAG27 served as a control. “SCR” and “P3MT5” represent scrambled QBP1 and mutant P3 peptides respectively.
(In general: Quantitative PCR measures a nucleic acid by following its amplification.)

In test [3] the test system is pre-45s rRNA transcription in MJDCAG78-expressing HEK293 cells. The test is described as follows: Real-time PCR of pre-45s rRNA in MJDCAG78-expressing HEK293 cells. Conditions: MJDCAG78-expressing HEK293 cells (FIG. 5D). In kind it is cell-based.
Excerpt: as §1

The subject of test [4] is Drosophila polyQ disease model. Nature of the test: Pseudopupil assay in transgenic Drosophila polyQ model (RNA and protein toxicities). In kind it is in vivo. To be noted: third instar larvae incubated with peptides (100 μM each); pseudopupil assay on 0-3 day-old adult flies. As for the experimental part: FIG. 7. (A) A co-treatment approach to target RNA and protein toxicities of polyQ diseases. (B) The combined effect of P3 and QBP1 peptides on suppressing neurodegeneration in a transgenic Drosophila polyQ model. Third instar larvae were incubated with corresponding peptides (100 μM each). Pseudopupil assay was performed on 0-3 day-old adult flies. The average number of rhabdomeres per ommatidium (single eye unit of the adult flies) is shown at the bottom left hand corner of each image. (C) Statistical analysis of (B). “WT” and “MT5” represent wildtype and mutant P3 peptides respectively. “SCR” denotes a scrambled sequence of QBP1. * represents P<0.05; ** represents P<0.01. Error bars represent standard deviation. Because both expanded CAG RNA and polyQ protein contribute to neurotoxicity, a therapeutic strategy that simultaneously targets these toxic species would be ideal for treatment. A similar combined therapeutic approach was recently reported in cancer treatment (Suzuki, et al., 2013), indicating its therapeutic potential of this strategy. We have performed a pilot study to simultaneously target both the RNA and protein toxicities using a well-studied protein toxicity peptide QBP1 (Nagai, et al., 2000) and P3, and has obtained satisfactory suppression (FIG. 7A).

In test [5] the test system is polyQ protein toxicity. Conditions: reported in literature, in vitro and in vivo; cited from earlier work.
Test [6] relates to interaction between purified NCL and expanded CAG RNA (NCL: CAG78 RNA complex). Nature of the test: Competition assay: GST-NCL / CAG78 RNA pull-down on glutathione beads, bound RNA by RT-PCR. In kind it is binding. From the text:
Purified GST-nucleolin (GST-NCL) protein was purchased from Abnova (H00004691-P01), and the control GST protein was expressed and purified as previously described (Tsoi H, et al. 2011). The CAG78 (SEQ ID NO:18) and CUG78 (SEQ ID NOP:19) RNAs were synthesized from a pcDNA3.1-MJDCAG78 PCR product, using the MEGAscript kit (Ambion) with the following primer pairs: T7CAGF, 5′-TAA AC GACTCACTATAGGGAGAAGAAGCCTACTTTGAAAAA-3′ (SEQ ID NO:20) and CAGR, 5′-CTG TCC TGA TAG GTC CCG-3′ (SEQ ID NO:21) for CAG78 (SEQ ID NO:18); and T7CUGF, 5′-TAATACGACTCACTATAGGGAGAAGACACGACTATCCAGGGC-3′ (SEQ ID NO:22) and CUGR, 5′-CTT CGG ATG AAA CTT TTT-3′ (SEQ ID NO:23) for CUG78 (SEQ ID NO:19). To perform in vitro protein-RNA interaction, 50 ng of GST protein was first captured by glutathione Sepharose beads (GE Healthcare). The purified in vitro transcribed RNA (10 pmol) was allowed to bind with GST-coated glutathione Sepharose beads and the mixture was incubated at 4° C. overnight in a 500-μL reaction volume. Before elution, the protein-RNA mixture was washed three times with 1 mL of binding buffer [20 mM Hepes, pH 7.4, 150 mM NaCl, 5 mM MgCl2, 0.5% Nonidet P-40, 40 units RNAsin (Promega), and 1 mg/mL yeast tRNA (Sigma)]. Bound RNA was then extracted for RT-PCR as described in Tsoi H, et al. 2011.
These peptides were then tested for the ability to interact with expanded CAG RNA. […]

Regarding “DGKSKGIAAIEAK (synthetic nucleolin RNA recognition motif (RRM), RRM domain of nucleolin, RRM-related sequence core amino acid sequence P3MT5/MTc) [Peptide P3MT5]”, in test [1], the “suppression of DsRedCAG100 RNA toxicity (pseudopupil assay score)” value is “did not exert any rescuing effect”. For the same substance, the GRP78/BiP induction result in test [2] was “did not demonstrate such suppressive effects”. For the same substance, in test [3], the “pre-45s rRNA transcription” value is reported as “did not demonstrate such suppressive effects”.

Regarding “S N W K W W P G I F D (SNWKWWPGIFD; synthetic polyQ-mediated toxicity inhibitor peptide QBP1) [reference compound]”, in test [2], the GRP78/BiP induction entry is “suppressed GRP78/BiP induction”. The “pre-45s rRNA transcription” value in test [3] is “restored pre-45s rRNA transcription”. Further, the “suppression of neurodegeneration in Drosophila polyQ disease model” value in test [4] is “substantial suppression”. For the same substance, the “suppression of polyQ protein toxicity” value in test [5] is “capable of suppressing polyQ protein toxicity both in vitro and in vivo”.

For the substance “VPQNQNGKSKGYAF (synthetic nucleolin RNA recognition motif (RRM), RRM domain of nucleolin, RRM-related sequence core amino acid sequence P5) [Peptide P5]”, the “disruption of the interaction between purified NCL and expanded CAG RNA, dose dependence” value in test [6] (P3 at 10, 50, 100, 250, and 750 μM with NCL and CAG78 RNA (FIG. 1D)) is “able to interfere with the interaction between purified NCL and expanded CAG RNA”. In test [6] (Ten μM of each peptide with purified GST-NCL and CAG78 RNA (FIG. 1C)), the “interference with the interaction between purified NCL and expanded CAG RNA” value is “able to interfere with the interaction between purified NCL and expanded CAG RNA”.
